Results taken from article PMC12832182 (Science (New York, N.Y.), 2025).

Target: T1, non-Cathepsin L-processed, but self-cleaved enzyme (LyLAP) (Homo sapiens, UniProt Q6P4A8)
T1 sequence (Q6P4A8 39-227): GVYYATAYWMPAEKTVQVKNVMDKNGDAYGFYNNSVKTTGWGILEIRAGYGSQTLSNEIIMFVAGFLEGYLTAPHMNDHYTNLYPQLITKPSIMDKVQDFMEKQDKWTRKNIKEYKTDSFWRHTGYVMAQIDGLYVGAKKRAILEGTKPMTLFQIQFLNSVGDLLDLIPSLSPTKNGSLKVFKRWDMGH
T1 sequence (Q6P4A8 228-553): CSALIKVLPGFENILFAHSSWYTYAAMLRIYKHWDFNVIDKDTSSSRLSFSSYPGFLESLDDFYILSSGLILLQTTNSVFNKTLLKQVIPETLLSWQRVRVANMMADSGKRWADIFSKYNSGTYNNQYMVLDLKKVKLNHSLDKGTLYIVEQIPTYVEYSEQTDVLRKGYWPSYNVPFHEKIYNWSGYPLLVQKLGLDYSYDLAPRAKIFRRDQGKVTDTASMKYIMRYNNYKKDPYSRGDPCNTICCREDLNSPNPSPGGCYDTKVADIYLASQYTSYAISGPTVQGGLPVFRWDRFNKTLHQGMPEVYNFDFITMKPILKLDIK
Assay: fluorogenic AMC release
Type: biochemical
Details: lysosomal pH buffer pH 4.5, 37°C; without cathepsin L preactivation

Cc1cc(=O)oc2cc(NC(=O)[C@@H](N)CC(C)C)ccc12 [Leu-AMC, L-Leucine-7-amido-4-methylcoumarin]
fluorogenic AMC release: increased catalysis toward single amino acid substrates and, more substantially, toward tripeptide substrates
